Target: PCSK9 (Homo sapiens, UniProt Q8NBP7)
Assay: PCSK9-LDLR in vitro Binding Assay (ELISA)
Conditions: for inhibition at 5 µM: Concentration 5 μM
Procedure: The PCSK9-LDLR in vitro Binding Assay is a quantitative solid phase binding assay between PCSK9 and recombinant LDLR. Plates were pre-coated with a recombinant LDLR-AB domain, which binds PCSK9. Test compound at different concentration was added to the PCSK9 and added to LDLR immobilized on the wells. The amount of bound PCSK9 is measured by binding it with biotinylated anti-His-tag monoclonal antibody, followed by binding with horseradish peroxidase conjugated streptavidin substrate. The color was quantified by ELISA reader at […] which reflects the relative amount of PCSK9 that binds to LDLR in presence and absence of the inhibitor. EC50 values were calculated by nonlinear regression analysis using graph pad prism software. Each concentration point represents values in duplicates.

Chain of PCSK9 (Q8NBP7 153-692): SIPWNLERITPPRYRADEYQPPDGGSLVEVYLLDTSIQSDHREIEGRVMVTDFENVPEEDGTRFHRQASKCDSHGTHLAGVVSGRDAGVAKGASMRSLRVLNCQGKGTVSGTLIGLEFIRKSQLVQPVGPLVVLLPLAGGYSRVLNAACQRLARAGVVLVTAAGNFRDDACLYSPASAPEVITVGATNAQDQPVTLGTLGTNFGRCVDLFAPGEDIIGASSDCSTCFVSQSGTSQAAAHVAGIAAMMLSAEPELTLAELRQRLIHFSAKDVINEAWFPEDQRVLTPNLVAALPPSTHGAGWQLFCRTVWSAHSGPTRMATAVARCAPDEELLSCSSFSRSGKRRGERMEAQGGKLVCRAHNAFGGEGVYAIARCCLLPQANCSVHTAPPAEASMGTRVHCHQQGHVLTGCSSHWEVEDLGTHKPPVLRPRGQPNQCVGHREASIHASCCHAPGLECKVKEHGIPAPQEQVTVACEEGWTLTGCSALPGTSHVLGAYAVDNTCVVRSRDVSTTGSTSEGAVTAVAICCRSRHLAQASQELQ
Chain of PCSK9 (Q8NBP7 31-152 partner limits assumed): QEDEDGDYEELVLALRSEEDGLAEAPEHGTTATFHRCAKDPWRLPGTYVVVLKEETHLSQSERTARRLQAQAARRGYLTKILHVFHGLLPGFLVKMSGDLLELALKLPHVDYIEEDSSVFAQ

Cc1oc(-c2ccccc2)nc1CCC1COC(C)(C(=O)NO)OC1 (centres unmarked) [Example 36, N-hydroxy-2-methyl-5t-(2-(5-methyl-2-phenyloxazol-4-yl)ethyl)-1,3-dioxane-2-carboxamide]
% Inhibition PCSK9 (Concentration 1 μM, 1 µM): 10% | % Inhibition PCSK9 (Concentration 100 μM, 100 µM): 24%

Cc1oc(-c2ccccc2)nc1CCC1COC(C)(C(=O)NCC2CCOCC2)OC1 (centres unmarked) [Example 38, 2-methyl-5-c-(2-(5-methyl-2-phenyloxazol-4-yl)ethyl)-N—((tetrahydro-2H-pyran-4-yl)methyl)-1,3-dioxane-2-carboxamide]
% Inhibition PCSK9 (Concentration 10 μM): 14% | % Inhibition PCSK9 (Concentration 100 μM): 21%

Cc1oc(-c2ccccc2)nc1CCC1COC(C)(C(=O)N2CCOCC2)OC1 (centres unmarked) [Example 41, (2-methyl-5-c-(2-(5-methyl-2-phenyloxazol-4-yl)ethyl)-1,3-dioxan-2-yl)(morpholino)methanone]
% Inhibition PCSK9 (Concentration 10 μM): 12% | % Inhibition PCSK9 (Concentration 100 μM): 19%

Cc1oc(-c2ccccc2)nc1CCC1COC(C)(C(=O)N2CCN(C)CC2)OC1 (centres unmarked) [Example 43, (2-methyl-5-c-(2-(5-methyl-2-phenyloxazol-4-yl)ethyl)-1,3-dioxan-2-yl)(4-methylpiperazin-1-yl)methanone]
% Inhibition PCSK9 (Concentration 10 μM): 8% | % Inhibition PCSK9 (Concentration 100 μM): 10%

Cc1oc(-c2ccccc2)nc1CCC1COC(C)(C(=O)N2CCSCC2)OC1 (centres unmarked) [Example 45, (2-methyl-5-c-(2-(5-methyl-2-phenyloxazol-4-yl)ethyl)-1,3-dioxan-2-yl)(thiomorpholino)methanone]
% Inhibition PCSK9 (Concentration 10 μM): 11% | % Inhibition PCSK9 (Concentration 100 μM): 18%

Cc1oc(-c2ccccc2)nc1CCC1COC(C)(C(=O)N2CCS(=O)(=O)CC2)OC1 (centres unmarked) [Example 46, (1,1-dioxidothiomorpholino)(2-methyl-5-c-(2-(5-methyl-2-phenyloxazol-4-yl)ethyl)-1,3-dioxan-2-yl)methanone]
% Inhibition PCSK9 (Concentration 10 μM): 12% | % Inhibition PCSK9 (Concentration 100 μM): 18%

Cc1oc(-c2ccccc2)nc1CCC1COC(C)(C(=O)NCC(=O)N2CCOCC2)OC1 (centres unmarked) [Example 47, 2-methyl-5-(2-(5-methyl-2-phenyloxazol-4-yl)ethyl)-N-(2-morpholino-2-oxoethyl)-1,3-dioxane-2-carboxamide]
inhibition at 1 µM (Concentration 1 μM): 38% | inhibition at 10 µM (Concentration 10 μM): 38% | inhibition at 100 µM (Concentration 100 μM): 42%

Cc1oc(-c2ccccc2)nc1CCC1COC(C)(C(=O)NCC(=O)N2CCOCC2)OC1 (centres unmarked) [Example 49, 2-methyl-5-t-(2-(5-methyl-2-phenyloxazol-4-yl)ethyl)-N-(2-morpholino-2-oxoethyl)-1,3-dioxane-2-carboxamide]
% Inhibition PCSK9 (Concentration 100 μM): 17%

Cc1oc(-c2ccccc2)nc1CCC1COC(C)(C(=O)NCC(=O)N2CCN(C)CC2)OC1 (centres unmarked) [Example 51, 2-methyl-5-c-(2-(5-methyl-2-phenyloxazol-4-yl)ethyl)-N-(2-(4-methylpiperazin-1-yl)-2-oxoethyl)-1,3-dioxane-2-carboxamide]
% Inhibition PCSK9 (Concentration 10 μM): 10% | % Inhibition PCSK9 (Concentration 100 μM): 35%

Cc1oc(-c2ccccc2)nc1CCC1COC(C)(C(=O)NCC(=O)N2CCSCC2)OC1 (centres unmarked) [Example 52, 2-methyl-5-c-(2-(5-methyl-2-phenyloxazol-4-yl)ethyl)-N-(2-oxo-2-thiomorpholinoethyl)-1,3-dioxane-2-carboxamide]
% Inhibition PCSK9 (Concentration 10 μM): 20% | % Inhibition PCSK9 (Concentration 100 μM): 32%

CC(=O)C(Cc1ccccc1)NC(=O)C1(C)OCC(CCc2nc(-c3ccccc3)oc2C)CO1 (centres unmarked) [Example 54, 2-methyl-5-(2-(5-methyl-2-phenyloxazol-4-yl)ethyl)-N-(3-oxo-1-phenylbutan-2-yl)-1,3-dioxane-2-carboxamide]
inhibition at 10 µM (Concentration 10 μM): 21% | inhibition at 100 µM (Concentration 100 μM): 29%

CC(=O)C(Cc1ccccc1)NC(=O)CNC(=O)C1(C)OCC(CCc2nc(-c3ccccc3)oc2C)CO1 (centres unmarked) [Example 55, 2-methyl-5-(2-(5-methyl-2-phenyloxazol-4-yl)ethyl)-N-(2-oxo-2-((3-oxo-1-phenylbutan-2-yl)amino)ethyl)-1,3-dioxane-2-carboxamide]
inhibition at 10 µM (Concentration 10 μM): 23% | inhibition at 100 µM (Concentration 100 μM): 30%

Cc1ccc(-c2nc(CC3COC(C)(C(=O)NOCc4ccccc4)OC3)c(C)o2)cc1 (centres unmarked) [Example 56, N-benzyloxy-2-methyl-5-((5-methyl-2-(p-tolyl)oxazol-4-yl)methyl)-1,3-dioxane-2-carboxamide]
inhibition at 5 µM: 6% | inhibition at 10 µM (Concentration 10 μM): 17%

Cc1ccc(-c2nc(CC3COC(C)(C(=O)NO)OC3)c(C)o2)cc1 (centres unmarked) [Example 60, N-hydroxy-2-methyl-5-c-((5-methyl-2-(p-tolyl)oxazol-4-yl)methyl)-1,3-dioxane-2-carboxamide]
% Inhibition PCSK9 (Concentration 1 μM): 28% | % Inhibition PCSK9 (Concentration 10 μM, 10 µM): 26% | % Inhibition PCSK9 (Concentration 100 μM, 100 µM): 70%

Cc1ccc(-c2nc(CC3COC(C)(C(=O)NO)OC3)c(C)o2)cc1 (centres unmarked) [Example 61, N-hydroxy-2-methyl-5-t-((5-methyl-2-(p-tolyl)oxazol-4-yl)methyl)-1,3-dioxane-2-carboxamide]
% Inhibition PCSK9 (Concentration 10 μM, 10 µM): 21% | % Inhibition PCSK9 (Concentration 100 μM, 100 µM): 32%

Cc1ccc(-c2nc(CC3COC(C)(C(=O)NCC4CCOCC4)OC3)c(C)o2)cc1 (centres unmarked) [Example 62, 2-methyl-5-((5-methyl-2-(p-tolyl)oxazol-4-yl)methyl)-N—((tetrahydro-2H-pyran-4-yl)methyl)-1,3-dioxane-2-carboxamide]
inhibition at 0.1 µM (Concentration 0.1 μM): 17% | inhibition at 1 µM (Concentration 1 μM): 21% | inhibition at 10 µM (Concentration 10 μM): 14% | inhibition at 100 µM (Concentration 100 μM): 41%

Cc1ccc(-c2nc(CC3COC(C)(C(=O)N4CCOCC4)OC3)c(C)o2)cc1 (centres unmarked) [Example 65, (2-methyl-5-((5-methyl-2-(p-tolyl)oxazol-4-yl)methyl)-1,3-dioxan-2-yl)(morpholino)methanone]
inhibition at 1 µM (Concentration 1 μM): 11% | inhibition at 10 µM (Concentration 10 μM): 26% | inhibition at 100 µM (Concentration 100 μM): 35%

Cc1ccc(-c2nc(CC3COC(C)(C(=O)N4CCOCC4)OC3)c(C)o2)cc1 (centres unmarked) [Example 66, (2-methyl-5-c-((5-methyl-2-(p-tolyl)oxazol-4-yl)methyl)-1,3-dioxan-2-yl)(morpholino)methanone]
% Inhibition PCSK9 (Concentration 1 μM, 1 µM): 23% | % Inhibition PCSK9 (Concentration 10 μM, 10 µM): 25% | % Inhibition PCSK9 (Concentration 100 μM, 100 µM): 31%

Cc1ccc(-c2nc(CC3COC(C)(C(=O)N4CCOCC4)OC3)c(C)o2)cc1 (centres unmarked) [Example 67, (2-methyl-5-t-((5-methyl-2-(p-tolyl)oxazol-4-yl)methyl)-1,3-dioxan-2-yl)(morpholino)methanone]
% Inhibition PCSK9 (Concentration 1 μM, 1 µM): 3% | % Inhibition PCSK9 (Concentration 10 μM, 10 µM): 21% | % Inhibition PCSK9 (Concentration 100 μM, 100 µM): 25%

Cc1oc(C(C)(C)C)nc1CC1COC(C)(C(=O)NO)OC1 (centres unmarked) [Example 72, 5-((2-(tert-butyl)-5-methyloxazol-4-yl)methyl)-N-hydroxy-2-methyl-1,3-dioxane-2-carboxamide]
inhibition at 5 µM: 11% | inhibition at 100 µM (Concentration 100 μM): 25% | inhibition at 110 µM (Concentration 110 μM): 20%

Cc1ccc(-c2nc(CC3COC(C)(C(=O)NCC4CCOCC4)OC3)c(C)o2)s1 (centres unmarked) [Example 74, 2-methyl-5-c-((5-methyl-2-(5-methylthiophen-2-yl)oxazol-4-yl)methyl)-N—((tetrahydro-2H-pyran-4-yl)methyl)-1,3-dioxane-2-carboxamide]
% Inhibition PCSK9 (Concentration 1 μM, 1 µM): 4% | % Inhibition PCSK9 (Concentration 10 μM, 10 µM): 15% | % Inhibition PCSK9 (Concentration 100 μM, 100 µM): 27%

Cc1ccc(-c2nc(CC3COC(C)(C(=O)NCC4CCOCC4)OC3)c(C)o2)s1 (centres unmarked) [Example 75, 2-methyl-5-t-((5-methyl-2-(5-methylthiophen-2-yl)oxazol-4-yl)methyl)-N—((tetrahydro-2H-pyran-4-yl)methyl)-1,3-dioxane-2-carboxamide]
% Inhibition PCSK9 (Concentration 1 μM, 1 µM): 15% | % Inhibition PCSK9 (Concentration 10 μM, 10 µM): 11% | % Inhibition PCSK9 (Concentration 100 μM, 100 µM): 20%

Cc1ccc(-c2nc(CC3COC(C)(C(=O)N4CCOCC4)OC3)c(C)o2)s1 (centres unmarked) [Example 76]
% Inhibition PCSK9 (Concentration 1 μM): 6% | % Inhibition PCSK9 (Concentration 10 μM, 10 µM): 17% | % Inhibition PCSK9 (Concentration 100 μM, 100 µM): 27%

Cc1ccc(-c2nc(CC3COC(C)(C(=O)N4CCOCC4)OC3)c(C)o2)s1 (centres unmarked) [Example 77]
% Inhibition PCSK9 (Concentration 10 μM, 10 µM): 14% | % Inhibition PCSK9 (Concentration 100 μM, 100 µM): 16%

Cc1oc(-c2ccncc2)nc1CC1COC(C)(C(=O)NO)OC1 (centres unmarked) [Example 81, N-hydroxy-2-methyl-5-t-((5-methyl-2-(pyridin-4-yl)oxazol-4-yl)methyl)-1,3-dioxane-2-carboxamide]
% Inhibition PCSK9 (Concentration 1 μM, 1 µM): 7% | % Inhibition PCSK9 (Concentration 10 μM, 10 µM): 12% | % Inhibition PCSK9 (Concentration 100 μM, 100 µM): 23%

Cc1oc(-c2ccncc2)nc1CC1COC(C)(C(=O)N2CCOCC2)OC1 (centres unmarked) [Example 82, (2-methyl-5-c-((5-methyl-2-(pyridin-4-yl)oxazol-4-yl)methyl)-1,3-dioxan-2-yl)(morpholino)methanone]
% Inhibition PCSK9 (Concentration 1 μM, 1 µM): 13% | % Inhibition PCSK9 (Concentration 10 μM, 10 µM): 20% | % Inhibition PCSK9 (Concentration 100 μM): 42%

Cc1oc(-c2ccncc2)nc1CC1COC(C)(C(=O)N2CCOCC2)OC1 (centres unmarked) [Example 83, (2-methyl-5-t-((5-methyl-2-(pyridin-4-yl)oxazol-4-yl)methyl)-1,3-dioxan-2-yl)(morpholino)methanone]
% Inhibition PCSK9 (Concentration 1 μM, 1 µM): 20% | % Inhibition PCSK9 (Concentration 10 μM, 10 µM): 25% | % Inhibition PCSK9 (Concentration 100 μM): 42%

Cc1oc(-c2ccncc2)nc1CC1COC(C)(C(=O)NCC(=O)N2CCOCC2)OC1 (centres unmarked) [Example 87, 2-methyl-5-t-((5-methyl-2-(pyridin-4-yl)oxazol-4-yl)methyl)-N-(2-morpholino-2-oxoethyl)-1,3-dioxane-2-carboxamide]
% Inhibition PCSK9 (Concentration 10 μM, 10 µM): 12% | % Inhibition PCSK9 (Concentration 100 μM, 100 µM): 7%

Cc1oc(-c2ccncc2)nc1CC1COC(C)(C(=O)NCC(=O)NCC2CCOCC2)OC1 (centres unmarked) [Example 88, 2-methyl-5-c-((5-methyl-2-(pyridin-4-yl)oxazol-4-yl)methyl)-N-(2-oxo-2-(((tetrahydro-2H-pyran-4-yl)methyl)amino)ethyl)-1,3-dioxane-2-carboxamide]
% Inhibition PCSK9 (Concentration 10 μM, 10 µM): 10% | % Inhibition PCSK9 (Concentration 100 μM, 100 µM): 15%

From patent US20120252796A1, “COMPOUNDS FOR THE TREATMENT OF DYSLIPIDEMIA AND RELATED DISEASES” (priority 2009, published 2012)
